Assay results reported in patent US8354539B2, “Indole derivatives as IKK2 inhibitors” (Glaxo Group Limited, priority 2009, dated 2013).

Experiments:
LPS induced neutrophilia = assay: Inhaled LPS induced neutrophilia in the male CD rat; assay type: in vivo; conditions: dose of 300 ug/kg i.t.
Description: Male CD rats (150-250 g) were anaesthetised with isoflurane (5%, 2 L/min O2, 1 L/min […]) and positioned on their back on a dosing table at a 35 degree angle, with a metal rod placed under their incisors to keep them in place. A light was angled against the outside of the throat to highlight the trachea. The mouth was opened to visualise the upper opening of the airway and a portex cannula was introduced into the trachea via a blunt dosing needle. 200 ul of compound formulation was then injected into the airways. After dosing, animals were placed in a supine position during recovery from anaesthesia.
Approximately thirty minutes following dosing of compound or vehicle, the rats were placed into a cloud chamber and exposed to an aerosol of lipopolysaccharide, generated from a 150 ug/ml solution for 15 min.
Four hours following LPS challenge the animals were culled with an overdose of sodium pentobarbitone given intraperitoneally. The trachea was exposed and a small incision made, into which a tube was inserted towards the lungs. The lungs were then washed with 3 times with 5 mls heparinised (10 U/ml) PBS.
The bronchoalveolar lavage fluid (BALF) samples were centrifuged at 1300 rpm for 7 minutes. […] The total cells were also counted from the resuspension using a Sysmex counter. From these two counts, the total numbers of neutrophils in the BALF were determined.

[1] = target: T1, Recombinant human IKKβ (IKK2) (Homo sapiens, UniProt O14920); assay: IKK2 assay (TR-FRET); assay type: biochemical; conditions: read-out: pIC50 potency against IKK2 (converted)
T1 construct: Recombinant human IKKβ (residues 5-756); GST (C); made in house
T1 sequence (O14920 5-756): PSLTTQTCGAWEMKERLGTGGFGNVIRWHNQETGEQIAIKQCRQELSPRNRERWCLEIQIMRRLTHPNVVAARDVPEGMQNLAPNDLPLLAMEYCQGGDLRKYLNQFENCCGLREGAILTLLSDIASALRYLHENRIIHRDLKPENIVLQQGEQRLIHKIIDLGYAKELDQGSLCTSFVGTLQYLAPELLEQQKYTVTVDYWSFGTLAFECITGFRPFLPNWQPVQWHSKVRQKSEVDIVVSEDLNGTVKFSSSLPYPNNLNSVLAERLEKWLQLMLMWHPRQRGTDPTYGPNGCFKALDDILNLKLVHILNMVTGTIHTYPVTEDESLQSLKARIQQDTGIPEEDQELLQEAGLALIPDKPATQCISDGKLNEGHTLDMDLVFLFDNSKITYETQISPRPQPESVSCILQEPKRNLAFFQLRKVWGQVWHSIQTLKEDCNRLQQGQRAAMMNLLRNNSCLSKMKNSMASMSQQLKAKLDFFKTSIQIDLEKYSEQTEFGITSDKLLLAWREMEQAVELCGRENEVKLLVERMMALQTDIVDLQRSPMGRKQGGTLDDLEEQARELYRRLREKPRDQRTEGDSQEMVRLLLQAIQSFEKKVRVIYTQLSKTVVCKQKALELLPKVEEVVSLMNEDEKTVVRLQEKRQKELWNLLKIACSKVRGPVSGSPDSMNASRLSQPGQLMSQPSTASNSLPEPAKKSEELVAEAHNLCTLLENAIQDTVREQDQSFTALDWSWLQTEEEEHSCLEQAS
Description: Recombinant human IKKβ (residues 5-756) was expressed in baculovirus as a C-terminal GST-tagged fusion protein, and its activity was assessed using a time-resolved fluorescence resonance energy transfer (TR-FRET) assay. Briefly, IKKβ (0.5-4 nM final concentration) diluted in assay buffer (50 mM HEPES, 10 mM MgCl2, 1 mM CHAPS pH 7.4 with 1 mM DTT and 0.01% w/v BSA) was added to wells containing various concentrations of compound or DMSO vehicle (1.7% v/v final). The reaction was initiated by the addition of GST-IkappaBalpha substrate (25 nM final)/ATP (1 μM final), in a total volume of 6 μl. The reaction was incubated for 15 mins at room temperature, then terminated by the addition of 3 μl of 50 mM EDTA in buffer (100 mM HEPES pH 7.4, 150 mM NaCl and 0.1% w/v BSA) containing antiphosphoserine-IkappaBalpha-32/36 monoclonal antibody clone 12C2 (Cell Signalling Technology, Beverly Mass., USA) labelled with W-1024 europium chelate (Wallac O Y, Turku, Finland), and an APC-labelled anti-GST antibody (Prozyme, San Leandro, Calif., USA). The reaction was further incubated for 60 mins at room temperature and the degree of phosphorylation of GST-IkappaBalpha measured using a Rubystar plate reader (BMG Instruments, Aylesbury, UK) as a ratio of specific 665 nm energy transfer signal to reference europium 620 nm signal.

[2] = system: human peripheral blood mononuclear cells (PBMC); assay: Human peripheral blood mononuclear cell assay (LPS stimulated TNFa production); assay type: cell-based; conditions: read-out: pIC50 potency, inhibition of TNF production (converted)
Description: The cellular potency of compounds was assessed in human peripheral blood mononuclear cells (PBMC) by measuring their impact on lipopolysaccharide (LPS) stimulated TNFa production. PBMCs were prepared from heparinised human blood from normal volunteers by centrifugation on hystopaque in Accuspin tubes at 800 g for 20 minutes. The cells were collected from the interface, washed by centrifugation (1300 g, 10 minutes) and resuspended in assay buffer (RPMI1640 containing 10% foetal calf serum, 1% L-glutamine and 1% penicillin/streptomycin) at 1×10^6 cells/ml. […] The supernatant was removed and the concentrations of TNF determined by electrochemiluminescence assay using the MSD technology.
20 μl supernatant from PBMC plates or 40 μl from whole blood plates was transferred using the Biomek FX to a 96 well High-Bind MSD assay plate precoated with anti-hTNF alpha capture antibody and containing 25 μl of MSD human serum cytokine assay diluent. […] The plates were shaken at room temperature for a further 1 hour before washing again and adding 150 μl of MSD Read Buffer T (2×). Plates were then read on the MSD Sector 6000 plate reader. For the PBMC assay, supernatant addition to the MSD plates was followed immediately by 20 μl of MSD detection antibody, the plates were then sealed and shaken for 2 hours before addition of 90 μl of MSD Read Buffer P (2.5×). Plates were read on the MSD Sector 6000. […]

COCCS(=O)(=O)N1CCC(c2c[nH]c3c(C(N)=O)cc(-c4ccc5c(c4)CN(C(C)C)C5)cc23)CC1 [Compound of formula (I), 5-[2-(1-methylethyl)-2,3-dihydro-1H-isoindol-5-yl]-3-(1-{[2-(methyloxy)ethyl]sulfonyl}-4-piperidinyl)-1H-indole-7-carboxamide]
inhibition of LPS induced neutrophilia (LPS induced neutrophilia): greater than 75% | IC50 [1]: < 100 nM | IC50 [2]: < 31.6 nM
